Measured values from ChEMBL document CHEMBL6096697, “Structure-Guided Discovery of Novel N4-(Substituted Thiazol-2-yl)-N2-(4-Substituted phenyl)pyrimidine-2,4-Diamines as Potent CDK2 and CDK9 Dual Inhibitors with High Oral Bioavailability” (J Med Chem, 2025).
Active and inactive are the calls of the source. The calls are words filed in the database; no cut-off is given here.

Assays:
HCT-116 [1] = assay: Induction of apoptosis in human HCT-116 cells assessed as early apoptotic cells at 0.2 uM incubated for 24 hrs by PI staining based flow cytometry (reference value: 0.19 %); assay type: functional
HCT-116 [2] = assay: Induction of apoptosis in human HCT-116 cells assessed as decrease in Bcl-2 level upto 0.8 uM incubated for 24 hrs by Western blot analysis; assay type: functional, cell-based
[3] = target: Cyclin-dependent kinase 9 (Homo sapiens) (UniProt P50750); assay: Inhibition of CDK9 in human HCT-116 cells assessed as reduction in Rpb1 phosphorylation at Ser2/5 incubated for 24 hr s by Western blot analysis; assay type: cell-based; settings: dose <= 0.8 µM
Sequence of Cyclin-dependent kinase 9 (Homo sapiens) (P50750 whole entry): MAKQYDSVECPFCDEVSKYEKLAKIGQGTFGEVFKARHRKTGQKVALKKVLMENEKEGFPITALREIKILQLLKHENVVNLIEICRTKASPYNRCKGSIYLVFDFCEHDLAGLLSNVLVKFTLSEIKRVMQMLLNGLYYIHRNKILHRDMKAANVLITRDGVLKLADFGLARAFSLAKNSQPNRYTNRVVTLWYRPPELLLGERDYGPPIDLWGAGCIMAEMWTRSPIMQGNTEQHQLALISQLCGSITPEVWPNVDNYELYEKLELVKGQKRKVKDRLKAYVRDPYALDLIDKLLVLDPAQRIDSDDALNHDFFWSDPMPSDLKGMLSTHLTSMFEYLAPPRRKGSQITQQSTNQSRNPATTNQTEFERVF

HCT-116 [4] = assay: Induction of cell cycle arrest in human HCT-116 cells assessed as accumulation at sub-G1 phase at 0.4 uM incubated for 24 hrs by PI staining based flow cytometry (reference value: 2.45 +/- 0.49 %); assay type: functional
MDA-MB-231 = assay: Antiproliferative activity against human MDA-MB-231 cells assessed as cell growth inhibition incubated for 48 hrs by MTT assay; assay type: functional, cell-based; settings: MDA-MB-231, 48 h
[5] = Half life in Sprague-Dawley rat at 2 mg/kg, iv measured for 36 hrs by MRM analysis; assay type: ADME, organism-based; settings: in vivo
HeLa [6] = assay: Induction of cell cycle arrest at G2/M phase in human HeLa cells assessed as decrease in cyclin B1 level incubated for 48 hrs by Western blot analysis; assay type: functional, cell-based; settings: dose <= 3.6 µM
[7] = AUC (0 to t) in Sprague-Dawley rat at 10 mg/kg, po measured for 36 hrs by MRM analysis; assay type: ADME, organism-based; settings: in vivo
HCT-116 [8] = assay: Induction of apoptosis in human HCT-116 cells assessed as viable cells at 0.8 uM incubated for 24 hrs by PI staining based flow cytometry (reference value: 79.4 %); assay type: functional; settings: read-out: Activity
[9] = target: Cyclin-dependent kinase 2/cyclin A (Homo sapiens, UniProt P24941); assay: Inhibition of CDK2/cyclin A (unknown origin) using […] incubated for 40 mins in presence of ATP by Kinase-Glo assay; assay type: protein-complex assay
HeLa [10] = assay: Induction of cell cycle arrest in human HeLa cells assessed as accumulation at S phase at 1.8 uM incubated for 24 hrs by PI staining based flow cytometry (reference value: 17.84 +/- 1.89 %); assay type: functional
HCT-116 [11] = assay: Induction of cell cycle arrest in human HCT-116 cells assessed as accumulation at G1/G0 phase at 0.8 uM incubated for 24 hrs by PI staining based flow cytometry (reference value: 58.29 +/- 2.01 %); assay type: functional
HeLa [12] = assay: Induction of cell cycle arrest at G2/M phase in human HeLa cells assessed as decrease in cyclin B1 level at 1.8 uM by Western blot analysis; assay type: functional, cell-based; settings: time <= 48.0 hrs
[13] = Cmax in Sprague-Dawley rat at 2 mg/kg, iv measured for 36 hrs by MRM analysis; assay type: ADME, organism-based; settings: in vivo
[14] = Toxicity in Balb/c-nu nude mouse xenografted with human HCT-116 cells assessed as toxic reactions at 35 to 70 mg/kg/day, po treated for 30 days; assay type: organism-based; settings: in vivo, 720 h, dose 35-70 mg/kg/day, time 30 day
HCT-116 [15] = assay: Induction of cell cycle arrest in human HCT-116 cells assessed as accumulation at G1/G0 phase at 0.2 uM incubated for 24 hrs by PI staining based flow cytometry (reference value: 58.29 +/- 2.01 %); assay type: functional
HeLa [16] = assay: Induction of apoptosis in human HeLa cells assessed as decrease in Bcl-2 level upto 3.6 uM incubated for 24 hrs by Western blot analysis; assay type: functional, cell-based
[17] = target: Cyclin-dependent kinase 2/cyclin A (Homo sapiens) (UniProt P24941+P20248+P78396); assay: Inhibition of CDK2/cyclin A (unknown origin) using […] at 1 uM incubated for 40 mins in presence of ATP by Kinase-Glo assay relative to control; assay type: protein-complex assay
[18] = Toxicity in Balb/c-nu nude mouse xenografted with human HCT-116 cells assessed as toxicity in liver at 35 to 70 mg/kg/day, po treated for 30 days by H and E staining based analysis; assay type: organism-based; settings: in vivo, 720 h, dose 35-70 mg/kg/day, time 30 day
HeLa [19] = assay: Induction of apoptosis in human HeLa cells assessed as late apoptotic cells at 3.6 uM incubated for 24 hrs by PI staining based flow cytometry (reference value: 3.85 %); assay type: functional
HCT-116 [20] = assay: Induction of apoptosis in human HCT-116 cells assessed as early apoptotic cells at 0.4 uM incubated for 24 hrs by PI staining based flow cytometry (reference value: 0.19 %); assay type: functional
HCT-116 [21] = assay: Induction of cell cycle arrest in human HCT-116 cells assessed as accumulation at S phase at 0.2 uM incubated for 24 hrs by PI staining based flow cytometry (reference value: 20.82 +/- 1.24 %); assay type: functional
[22] = Inhibition of CDK9/cyclin T (unknown origin) using […] incubated for 40 mins in presence of ATP by Kinase-Glo assay; design: species or system Homo sapiens
HCT-116 [23] = assay: Induction of apoptosis in human HCT-116 cells assessed as increase in cleaved PARP level upto 0.8 uM incubated for 24 hrs by Western blot analysis; assay type: functional, cell-based
[24] = Oral bioavailability in Sprague-Dawley rat at 10 mg/kg measured for 36 hrs by MRM analysis; assay type: ADME, organism-based; settings: in vivo
MV4-11 = assay: Antiproliferative activity against human MV4-11 cells assessed as cell growth inhibition incubated for 48 hrs by MTT assay; assay type: functional, cell-based; settings: MV4-11, 48 h
HCT-116 [25] = assay: Induction of apoptosis in human HCT-116 cells assessed as late apoptotic cells at 0.2 uM incubated for 24 hrs by PI staining based flow cytometry (reference value: 1.11 %); assay type: functional
[26] = AUC (0 to t) in Sprague-Dawley rat at 2 mg/kg, iv measured for 36 hrs by MRM analysis; assay type: ADME, organism-based; settings: in vivo
HeLa [27] = assay: Induction of apoptosis in human HeLa cells assessed as early apoptotic cells at 0.9 uM incubated for 24 hrs by PI staining based flow cytometry (reference value: 0.8 %); assay type: functional
A2780 = assay: Antiproliferative activity against human A2780 cells assessed as cell growth inhibition incubated for 48 hrs by MTT assay; assay type: functional, cell-based; settings: A2780, 48 h
[28] = target: CDK9/cyclin T1 (Homo sapiens) (UniProt O60563+P50750); assay: Inhibition of CDK9/cyclin T (unknown origin) using […] at 1 uM incubated for 40 mins in presence of ATP by Kinase-Glo assay relative to control; assay type: protein-complex assay
[29] = Inhibition of CDK1/cyclin B (unknown origin) using […] incubated for 40 mins in presence of ATP by Kinase-Glo assay; design: species or system Homo sapiens
[30] = target: Cyclin-dependent kinase 2 (Homo sapiens) (UniProt P24941); assay: Inhibition of CDK2 in human HCT-116 cells assessed as reduction in Rb phosphorylation at Ser780 incubated for 24 hr s by Western blot analysis; assay type: cell-based; settings: dose <= 0.8 µM
HepG2 = assay: Antiproliferative activity against human HepG2 cells assessed as cell growth inhibition incubated for 48 hrs by MTT assay; assay type: functional, cell-based; settings: HepG2, 48 h
[31] = target: Cyclin-dependent kinase 5/CDK5 activator 1 (Homo sapiens, UniProt Q00535); assay: Inhibition of CDK5/p35 (unknown origin) using […] incubated for 40 mins in presence of ATP by Kinase-Glo assay; assay type: protein-complex assay
Sequence of Cyclin-dependent kinase 5/CDK5 activator 1 (Q00535 whole entry): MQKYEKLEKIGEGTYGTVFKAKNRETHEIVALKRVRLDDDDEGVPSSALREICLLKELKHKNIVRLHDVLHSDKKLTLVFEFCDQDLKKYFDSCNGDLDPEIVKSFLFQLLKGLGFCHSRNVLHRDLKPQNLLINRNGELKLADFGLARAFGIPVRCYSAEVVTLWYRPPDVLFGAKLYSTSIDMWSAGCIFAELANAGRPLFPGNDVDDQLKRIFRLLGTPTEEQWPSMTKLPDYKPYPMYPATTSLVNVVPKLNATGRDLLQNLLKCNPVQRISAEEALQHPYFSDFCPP
Sequence of Cyclin-dependent kinase 5/CDK5 activator 1 (Q15078 whole entry, further chain): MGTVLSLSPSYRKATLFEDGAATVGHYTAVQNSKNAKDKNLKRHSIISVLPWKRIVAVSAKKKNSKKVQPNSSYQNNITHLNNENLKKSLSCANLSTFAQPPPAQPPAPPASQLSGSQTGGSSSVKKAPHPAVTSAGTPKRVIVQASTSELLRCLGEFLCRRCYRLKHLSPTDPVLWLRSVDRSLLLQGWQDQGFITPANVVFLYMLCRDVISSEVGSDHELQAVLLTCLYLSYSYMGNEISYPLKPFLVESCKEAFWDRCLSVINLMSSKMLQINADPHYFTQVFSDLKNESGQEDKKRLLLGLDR

SMILES: Cc1cnc(Nc2ccc(S(N)(=O)=O)cc2)nc1Nc1nccs1
- Activity (HCT-116 [1]): 2%
- Activity (HCT-116 [2]): Active
- inhibition [3]: Dose-dependent-effect
- Activity (HCT-116 [4]): 1.91%
- IC50 (MDA-MB-231): 0.928 µM
- half-life [5]: 4.5 h
- Activity (HeLa [6]): Dose-dependent-effect
- AUC(0-t) at 36 h [7]: 143 ng·h/mL
- viability at 0.8 µM (HCT-116 [8]): 52.8%
- IC50 [9]: 0.004 µM
- Activity (HeLa [10]): 16.79%
- Activity (HCT-116 [11]): 43.88%
- Activity (HeLa [12]): Time-dependent-effect
- Cmax [13]: 29.1 ng/mL
- Activity [14]: Non-toxic
- Activity (HCT-116 [15]): 51.83%
- Activity (HeLa [16]): Active
- inhibition [17]: 99.5%
- Activity [18]: Non-toxic
- Activity (HeLa [19]): 27.3%
- Activity (HCT-116 [20]): 17.9%
- Activity (HCT-116 [21]): 22.83%
- IC50 [22]: 0.009 µM
- Activity (HCT-116 [23]): Active
- bioavailability [24]: 86.7%
- IC50 (MV4-11): 0.121 µM
- Activity (HCT-116 [25]): 31.2%
- AUC(0-t) at 36 h [26]: 33.5 ng·h/mL
- Activity (HeLa [27]): 65.8%
- IC50 (A2780): 22.2 µM
- inhibition [28]: 99%
- IC50 [29]: 0.053 µM
- inhibition [30]: Dose-dependent-effect
- IC50 (HepG2): 2.09 µM
- IC50 [31]: 0.119 µM
